Assays:
[1] = target: T1, Peroxisome proliferator-activated receptor gamma (Homo sapiens, UniProt P37231); assay type: cell-based, 293T
T1 sequence (P37231 whole entry): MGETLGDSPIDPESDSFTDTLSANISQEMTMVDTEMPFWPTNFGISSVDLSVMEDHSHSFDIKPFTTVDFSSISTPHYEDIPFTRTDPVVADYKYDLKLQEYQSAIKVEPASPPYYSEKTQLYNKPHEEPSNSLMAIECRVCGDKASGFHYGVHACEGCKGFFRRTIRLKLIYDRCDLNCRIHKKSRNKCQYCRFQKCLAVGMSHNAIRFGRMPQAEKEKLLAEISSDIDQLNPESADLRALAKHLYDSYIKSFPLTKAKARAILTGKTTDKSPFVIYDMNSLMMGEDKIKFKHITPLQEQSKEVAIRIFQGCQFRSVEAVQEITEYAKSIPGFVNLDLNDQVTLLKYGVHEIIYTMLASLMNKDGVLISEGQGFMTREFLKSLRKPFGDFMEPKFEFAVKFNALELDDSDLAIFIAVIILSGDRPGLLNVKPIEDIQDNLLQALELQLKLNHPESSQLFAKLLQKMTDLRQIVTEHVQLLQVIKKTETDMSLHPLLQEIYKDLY

[2] = target: T2, Peroxisome proliferator-activated receptor alpha (Homo sapiens, UniProt Q07869); assay: Agonist activity at human PPARalpha ligand binding domain expressed in human 293T cells co-transfected with Gal4-DBD by luciferase transactivation assay; assay type: cell-based
T2 sequence (Q07869 whole entry): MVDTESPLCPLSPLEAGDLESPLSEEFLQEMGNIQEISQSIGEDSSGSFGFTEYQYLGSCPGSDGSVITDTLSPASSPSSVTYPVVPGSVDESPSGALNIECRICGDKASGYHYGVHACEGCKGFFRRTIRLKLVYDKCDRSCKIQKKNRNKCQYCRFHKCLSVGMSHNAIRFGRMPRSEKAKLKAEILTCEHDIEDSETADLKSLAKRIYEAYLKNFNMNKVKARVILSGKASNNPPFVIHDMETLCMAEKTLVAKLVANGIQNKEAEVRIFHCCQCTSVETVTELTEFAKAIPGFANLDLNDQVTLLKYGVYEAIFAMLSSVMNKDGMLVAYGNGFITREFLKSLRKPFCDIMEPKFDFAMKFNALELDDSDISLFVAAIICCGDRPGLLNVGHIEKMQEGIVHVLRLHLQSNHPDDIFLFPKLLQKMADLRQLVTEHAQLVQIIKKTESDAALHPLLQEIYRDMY

[3] = target: T3, Peroxisome proliferator-activated receptor delta (Homo sapiens, UniProt Q03181)
T3 sequence (Q03181 whole entry): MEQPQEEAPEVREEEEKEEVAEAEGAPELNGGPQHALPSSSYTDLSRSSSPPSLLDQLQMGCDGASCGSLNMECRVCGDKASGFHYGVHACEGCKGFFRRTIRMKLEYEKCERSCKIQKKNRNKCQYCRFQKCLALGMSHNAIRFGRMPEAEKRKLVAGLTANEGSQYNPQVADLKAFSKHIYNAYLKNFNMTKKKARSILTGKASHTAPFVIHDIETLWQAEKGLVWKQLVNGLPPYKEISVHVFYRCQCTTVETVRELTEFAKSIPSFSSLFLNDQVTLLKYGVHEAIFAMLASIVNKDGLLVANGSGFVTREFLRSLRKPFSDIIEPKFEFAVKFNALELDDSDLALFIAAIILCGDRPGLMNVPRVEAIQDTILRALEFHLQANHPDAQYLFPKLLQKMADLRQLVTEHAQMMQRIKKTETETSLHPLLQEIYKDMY

[4] = target: T4, Peroxisome proliferator-activated receptor alpha (Homo sapiens) (UniProt Q07869); assay: Agonist activity at human PPARalpha ligand binding domain expressed in human 293T cells co-transfected with Gal4-DBD by luciferase transactivation assay relative to KRP297; assay type: cell-based
T4 sequence (whole entry): T2 sequence (Q07869 whole entry)

[5] = target: T3, Peroxisome proliferator-activated receptor delta; remark: listed apart in the source
[6] = target: Peroxisome proliferator-activated receptor delta (Homo sapiens) (UniProt Q03181); assay: Agonist activity at human PPARdelta by FRET assay

EC50 ([1]; read-out: EC50) [µM]	EC50 ([2]; read-out: EC50) [µM]	EC50 [3] [µM]	Efficacy [4] [%]	EC50 [5] [µM]	EC50 [6] [µM]	Structure (SMILES)	EC50 ([1]; 293t)	EC50 ([2]; 293t)
> 10	4.08	4.06	5			COc1ccc(-c2csc(COc3ccc(OCC(=O)O)c(C)c3)n2)cc1		
1.31	1.09	1.87	37			CCOC(Cc1ccc(OCc2nc(-c3ccc(OC)cc3)c(-c3ccc(C(F)(F)F)cc3)s2)cc1)C(=O)O (stereo not given)		
5.66	5.35	> 10	64			COc1ccc(-c2nc(SCCOc3ccc(OCC(=O)O)c(C)c3)sc2-c2ccc(OC)cc2)cc1		
> 10	> 10	0.13				COc1ccc(-c2nc(COc3ccc(OCC(=O)O)c(C)c3)sc2-c2ccc(OC)c(Cl)c2)cc1		
> 10	> 10	0.018				Cc1cc(OCc2nc(-c3ccc(N4CCOCC4)nc3)c(-c3ccc(OC(F)(F)F)cc3)s2)ccc1OCC(=O)O		
> 10	> 10	0.01				CCCc1ccc(-c2oc(COc3ccc(OCC(=O)O)c(C)c3)nc2-c2ccc(OC)cc2)cc1		
> 10	> 10	0.032				CCOc1ccc(-c2nc(COc3ccc(OCC(=O)O)c(C)c3)sc2-c2ccc(OC(F)(F)F)cc2)cc1		
> 10	> 10	0.068				Cc1cc(OCc2nc(-c3cccnc3)c(-c3ccc(OC(F)(F)F)cc3)s2)ccc1OCC(=O)O		
> 10	> 10	0.01				COc1ccc(-c2nc(COc3ccc(OCC(=O)O)c(C)c3)oc2-c2ccc(C(F)(F)F)cc2)cc1		
> 10	> 10	0.023				Cc1cc(OCc2nc(-c3ccc(C(=O)N(C)C)cc3)c(-c3ccc(OC(F)(F)F)cc3)s2)ccc1OCC(=O)O		
> 10	> 10	5.9				Cc1cc(OCc2nc(-c3ccc(Cl)cc3)c(-c3ccccc3)s2)ccc1OCC(=O)O		
		0.011		0.013	0.017	CCCc1ccc(-c2sc(COc3ccc(OCC(=O)O)c(C)c3)nc2-c2ccc(OC(C)C)cc2)cc1		
> 10	1.99	0.003	38			Cc1cc(OCc2nc(-c3cnc(N4CCOCC4)nc3)c(-c3ccc(OC(F)(F)F)cc3)s2)ccc1OCC(=O)O		

The next lines start with the molecule.

Structure (SMILES)	EC50 ([1]; read-out: EC50) [µM]	EC50 ([2]; read-out: EC50) [µM]	EC50 [3] [µM]	Efficacy [4] [%]	EC50 [5] [µM]	EC50 [6] [µM]	EC50 ([1]; 293t)	EC50 ([2]; 293t)
Cc1cc(OCc2nc(-c3ccc(C(=O)N4CCCCC4)cc3)c(-c3ccc(OC(F)(F)F)cc3)s2)ccc1OCC(=O)O	1.56	1.59	0.006	55				
COc1ccc(-c2nc(SCCCCOc3ccc(OCC(=O)O)c(C)c3)sc2-c2ccc(OC)cc2)cc1	6.36	2.37	> 10	89				
Cc1cc(OCc2nc(-c3ccc(C(=O)N4CCCCC4)cc3)c(-c3ccc(OC(F)(F)F)cc3)o2)ccc1OCC(=O)O	> 10	1.15	0.018	43				
Cc1cc(OCc2nc(-c3ccc(N4CCCCC4)cc3)c(-c3ccc(OC(F)(F)F)cc3)s2)ccc1OCC(=O)O	> 10	5.2	0.052	9				
Cc1cc(OCc2nc(-c3ccc(C(=O)N(C)C(C)C)cc3)c(-c3ccc(OC(F)(F)F)cc3)o2)ccc1OCC(=O)O	0.6	0.7	0.001	49				
Cc1cc(OCc2nc(-c3ccc(C(=O)N(C)C(C)C)cc3)c(-c3ccc(OC(F)(F)F)cc3)s2)ccc1OCC(=O)O	1.2	0.69	0.002	65				
COc1ccc(-c2nc(SCCCOc3ccc(OCC(=O)O)c(C)c3)sc2-c2ccc(OC)cc2)cc1	6.89	5.25	> 10	62				
COc1ccc(-c2nc(COc3ccc(OCC(=O)O)c(C)c3)sc2-c2ccc(C(C)(C)C)cc2)cc1	> 10	> 10	0.72					
COc1ccc(-c2nc(COc3ccccc3OCC(=O)O)sc2-c2ccc(C(F)(F)F)cc2)cc1	> 10	> 10	> 10					
COc1ccc(-c2nc(COc3ccc(OC(C)(C)C(=O)O)cc3)sc2-c2ccc(C(F)(F)F)cc2)cc1	> 10	> 10	1.2					
COc1ccc(-c2nc(COc3ccc(OCC(=O)O)c(C)c3)sc2-c2ccc(-c3ccccc3)c(C(F)(F)F)c2)cc1	> 10	> 10	0.25					
COc1ccc(-c2nc(COc3ccc(CCC(=O)O)c(C)c3)sc2-c2ccc(C(F)(F)F)cc2)cc1	> 10	> 10	0.14					
Cc1cc(OCc2nc(-c3cnc(N4CCOCC4)nc3)c(-c3ccc(OC(F)(F)F)cc3)o2)ccc1OCC(=O)O	1.03	0.41	0.001	69				
Cc1ccc(-c2sc(COc3ccc(OCC(=O)O)c(C)c3)nc2-c2cccnc2)cc1	> 10	> 10	0.19					
COc1cccc(-c2nc(COc3ccc(OCC(=O)O)c(C)c3)sc2-c2ccc(OC(F)(F)F)cc2)c1	> 10	> 10	0.12					
Cc1cc(OCc2nc(-c3ccc(-c4ccccc4)cc3)c(-c3ccc(OC(F)(F)F)cc3)s2)ccc1OCC(=O)O	> 10	> 10	0.16					
Cc1cc(OCc2nc(-c3ccc4c(c3)OCCO4)c(-c3ccc(OC(F)(F)F)cc3)s2)ccc1OCC(=O)O	> 10	> 10	0.017					
COc1ccc(-c2nc(COc3ccc(OCC(=O)O)c(C)c3)sc2-c2ccc(Cl)nc2)cc1	> 10	> 10	0.88					
Cc1cc(OCc2nc(-c3cnc(OC(C)C)nc3)c(-c3ccc(OC(F)(F)F)cc3)o2)ccc1OCC(=O)O	0.98	0.16	0.001	82				
Cc1cc(OCc2nc(-c3ccc(-c4ccccc4)cc3)cs2)ccc1OCC(=O)O	> 10	0.48	0.34	42				
CCC(C)Oc1ccc(-c2nc(COc3ccc(OCC(=O)O)c(C)c3)sc2-c2ccc(OC(F)(F)F)cc2)cc1 (stereo not given)	> 10	> 10	0.018					
Cc1cc(OCc2nc(-c3ccc4[nH]c(=O)oc4c3)c(-c3ccc(OC(F)(F)F)cc3)s2)ccc1OCC(=O)O	> 10	> 10	0.544					
Cc1ccc(-c2csc(COc3ccc(OCC(=O)O)c(C)c3)n2)cc1	> 10	> 10	> 10					
Cc1cc(OCc2nc(-c3ccc(C(F)(F)F)cc3)c(-c3ccc(C(F)(F)F)cc3)s2)ccc1OCC(=O)O	> 10	> 10	0.35					
COc1ccc(-c2nc(COc3ccc(OCC(=O)O)c(C)c3)sc2-c2cnc3ccccc3c2)cc1	> 10	> 10	0.08					
COc1ccc(-c2nc(COc3ccc4c(ccn4CC(=O)O)c3)sc2-c2ccc(C(F)(F)F)cc2)cc1	> 10	> 10	0.34					
Cc1cc(OCc2nc(-c3ccc4c(c3)OCCCO4)c(-c3ccc(OC(F)(F)F)cc3)s2)ccc1OCC(=O)O	> 10	> 10	0.013					
COc1ccc(-c2nc(COc3ccc(OCC(=O)O)c(C)c3)oc2-c2ccc(Cl)c(Cl)c2)cc1	> 10	> 10	0.07					
Cc1cc(CN(CC(=O)Nc2ccc(Cl)cc2Cl)C2CCCCC2)ccc1OCC(=O)O			0.003				Not Active	Not Active
